One compound from paper PMC9133015 (Nature Communications, 2022) can be followed below.

Common to all, as to assay: Kinase inhibitor specificity profiling (Reaction Biology Corporation)
Type in all cases: biochemical
Holding throughout (set-up): % Enzyme Activity (relative to DMSO controls): concentration or dose not given beside the values

The target of test [1] is T1, panel of 370 protein kinases (Homo sapiens, UniProt O15264).
T1 construct: purchased Reaction Biology Corporation (assay service)
To be noted: 2 h, kinase P38d/MAPK13; read-out: % Enzyme Activity (relative to DMSO controls).

Test [2] deals with T2, panel of 370 protein kinases (Homo sapiens, UniProt P08922).
T2 construct: purchased Reaction Biology Corporation (assay service)
To be noted: 2 h, kinase ROS/ROS1; read-out: % Enzyme Activity (relative to DMSO controls).

Test [3] concerns the target T3, panel of 370 protein kinases (Homo sapiens, UniProt P27448).
T3 construct: purchased Reaction Biology Corporation (assay service)
Conditions: 2 h, kinase MARK3; read-out: % Enzyme Activity (relative to DMSO controls).

Test [4] concerns the target T4, panel of 370 protein kinases (Homo sapiens, UniProt P29322).
T4 construct: purchased Reaction Biology Corporation (assay service)
To be noted: 2 h, kinase EPHA8; read-out: % Enzyme Activity (relative to DMSO controls).

Test [5] concerns the target T5, panel of 370 protein kinases (Homo sapiens, UniProt P42679).
T5 construct: purchased Reaction Biology Corporation (assay service)
To be noted: 2 h, kinase CTK/MATK; read-out: % Enzyme Activity (relative to DMSO controls).

The target of test [6] is T6, panel of 370 protein kinases (Homo sapiens, UniProt P42684).
T6 construct: purchased Reaction Biology Corporation (assay service)
Conditions: 2 h, kinase ABL2/ARG; read-out: % Enzyme Activity (relative to DMSO controls).

For test [7], the target named is T7, panel of 370 protein kinases (Homo sapiens, UniProt P51813).
T7 construct: purchased Reaction Biology Corporation (assay service)
To be noted: 2 h, kinase BMX/ETK; read-out: % Enzyme Activity (relative to DMSO controls).

The target of test [8] is T8, panel of 370 protein kinases (Homo sapiens, UniProt Q13554).
T8 construct: purchased Reaction Biology Corporation (assay service)
Conditions: 2 h, kinase CAMK2b; read-out: % Enzyme Activity (relative to DMSO controls).

Test [9] concerns the target T9, panel of 370 protein kinases (Homo sapiens, UniProt Q13627).
T9 construct: purchased Reaction Biology Corporation (assay service)
Conditions: 2 h, kinase DYRK1/DYRK1A; read-out: % Enzyme Activity (relative to DMSO controls).

The target of test [10] is T10, panel of 370 protein kinases (Homo sapiens, UniProt Q15139).
T10 construct: purchased Reaction Biology Corporation (assay service)
To be noted: 2 h, kinase PKCmu/PRKD1; read-out: % Enzyme Activity (relative to DMSO controls).

For test [11], the target named is T11, panel of 370 protein kinases (Homo sapiens, UniProt Q6P3R8).
T11 construct: purchased Reaction Biology Corporation (assay service)
Conditions: 2 h, kinase NEK5; read-out: % Enzyme Activity (relative to DMSO controls).

Test [12] deals with T12, panel of 370 protein kinases (Homo sapiens, UniProt Q8IWQ3).
T12 construct: purchased Reaction Biology Corporation (assay service)
Conditions: 2 h, kinase BRSK2; read-out: % Enzyme Activity (relative to DMSO controls).

The target of test [13] is T13, panel of 370 protein kinases (Homo sapiens, UniProt Q8IY84).
T13 construct: purchased Reaction Biology Corporation (assay service)
To be noted: 2 h, kinase NIM1; read-out: % Enzyme Activity (relative to DMSO controls).

The target in test [14] is T14, panel of 370 protein kinases (Homo sapiens, UniProt Q9H2G2).
T14 construct: purchased Reaction Biology Corporation (assay service)
To be noted: 2 h, kinase SLK/STK2; read-out: % Enzyme Activity (relative to DMSO controls).

For test [15], the target named is T15, panel of 370 protein kinases (Homo sapiens, UniProt Q9H2X6).
T15 construct: purchased Reaction Biology Corporation (assay service)
To be noted: 2 h, kinase HIPK2; read-out: % Enzyme Activity (relative to DMSO controls).

The target of test [16] is T16, panel of 370 protein kinases (Homo sapiens, UniProt Q9HBH9).
T16 construct: purchased Reaction Biology Corporation (assay service)
Conditions: 2 h, kinase MNK2; read-out: % Enzyme Activity (relative to DMSO controls).

Test [17] addresses T17, panel of 370 protein kinases (Homo sapiens, UniProt Q9P286).
T17 construct: purchased Reaction Biology Corporation (assay service)
To be noted: 2 h, kinase PAK5; read-out: % Enzyme Activity (relative to DMSO controls).

In test [18] the target is T18, panel of 370 protein kinases (Homo sapiens, UniProt Q9UKE5).
T18 construct: purchased Reaction Biology Corporation (assay service)
To be noted: 2 h, kinase TNIK; read-out: % Enzyme Activity (relative to DMSO controls).

For test [19], the target named is T19, panel of 370 protein kinases (Homo sapiens, UniProt Q9UM73).
T19 construct: purchased Reaction Biology Corporation (assay service)
Conditions: 2 h, kinase ALK; read-out: % Enzyme Activity (relative to DMSO controls).

Test [20] has as its target T20, panel of 370 protein kinases (Homo sapiens, UniProt Q9Y2H1).
T20 construct: purchased Reaction Biology Corporation (assay service)
To be noted: 2 h, kinase STK38L/NDR2; read-out: % Enzyme Activity (relative to DMSO controls).

In test [21] the target is T21, panel of 370 protein kinases (Homo sapiens, UniProt Q9Y6M4).
T21 construct: purchased Reaction Biology Corporation (assay service)
To be noted: kinase CK1G3.

Where “and” joins values, the source holds several entries; their conditions need not be identical. Equal values may be shown once.

T21 sequence (Q9Y6M4 whole entry): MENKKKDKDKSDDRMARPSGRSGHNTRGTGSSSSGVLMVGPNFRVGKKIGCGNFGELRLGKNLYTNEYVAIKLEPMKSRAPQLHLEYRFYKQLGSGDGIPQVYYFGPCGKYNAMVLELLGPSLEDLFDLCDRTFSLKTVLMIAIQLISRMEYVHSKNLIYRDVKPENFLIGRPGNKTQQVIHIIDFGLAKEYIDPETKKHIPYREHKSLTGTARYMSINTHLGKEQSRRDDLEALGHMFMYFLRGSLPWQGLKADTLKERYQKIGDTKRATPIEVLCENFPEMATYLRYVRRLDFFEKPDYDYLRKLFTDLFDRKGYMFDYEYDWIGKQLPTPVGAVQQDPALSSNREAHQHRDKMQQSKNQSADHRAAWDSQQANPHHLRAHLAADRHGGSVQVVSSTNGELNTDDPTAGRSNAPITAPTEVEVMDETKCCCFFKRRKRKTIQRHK
T8 sequence (Q13554 whole entry): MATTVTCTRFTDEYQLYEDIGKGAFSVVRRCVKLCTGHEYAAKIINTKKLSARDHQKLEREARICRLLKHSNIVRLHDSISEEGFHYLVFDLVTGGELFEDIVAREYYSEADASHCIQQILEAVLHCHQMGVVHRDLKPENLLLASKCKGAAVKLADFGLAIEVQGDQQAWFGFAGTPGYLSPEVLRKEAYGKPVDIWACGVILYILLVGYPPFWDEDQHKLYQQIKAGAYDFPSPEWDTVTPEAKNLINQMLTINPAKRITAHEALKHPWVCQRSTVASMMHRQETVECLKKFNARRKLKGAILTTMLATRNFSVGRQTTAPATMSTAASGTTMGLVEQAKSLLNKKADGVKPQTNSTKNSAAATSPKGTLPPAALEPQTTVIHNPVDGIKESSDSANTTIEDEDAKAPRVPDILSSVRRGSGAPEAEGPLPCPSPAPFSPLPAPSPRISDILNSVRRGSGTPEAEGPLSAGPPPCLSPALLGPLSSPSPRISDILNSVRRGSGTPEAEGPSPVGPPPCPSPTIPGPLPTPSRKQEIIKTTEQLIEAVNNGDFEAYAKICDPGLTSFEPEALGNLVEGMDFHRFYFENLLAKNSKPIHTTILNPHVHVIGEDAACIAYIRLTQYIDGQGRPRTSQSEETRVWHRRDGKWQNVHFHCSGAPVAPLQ
T10 sequence (Q15139 whole entry): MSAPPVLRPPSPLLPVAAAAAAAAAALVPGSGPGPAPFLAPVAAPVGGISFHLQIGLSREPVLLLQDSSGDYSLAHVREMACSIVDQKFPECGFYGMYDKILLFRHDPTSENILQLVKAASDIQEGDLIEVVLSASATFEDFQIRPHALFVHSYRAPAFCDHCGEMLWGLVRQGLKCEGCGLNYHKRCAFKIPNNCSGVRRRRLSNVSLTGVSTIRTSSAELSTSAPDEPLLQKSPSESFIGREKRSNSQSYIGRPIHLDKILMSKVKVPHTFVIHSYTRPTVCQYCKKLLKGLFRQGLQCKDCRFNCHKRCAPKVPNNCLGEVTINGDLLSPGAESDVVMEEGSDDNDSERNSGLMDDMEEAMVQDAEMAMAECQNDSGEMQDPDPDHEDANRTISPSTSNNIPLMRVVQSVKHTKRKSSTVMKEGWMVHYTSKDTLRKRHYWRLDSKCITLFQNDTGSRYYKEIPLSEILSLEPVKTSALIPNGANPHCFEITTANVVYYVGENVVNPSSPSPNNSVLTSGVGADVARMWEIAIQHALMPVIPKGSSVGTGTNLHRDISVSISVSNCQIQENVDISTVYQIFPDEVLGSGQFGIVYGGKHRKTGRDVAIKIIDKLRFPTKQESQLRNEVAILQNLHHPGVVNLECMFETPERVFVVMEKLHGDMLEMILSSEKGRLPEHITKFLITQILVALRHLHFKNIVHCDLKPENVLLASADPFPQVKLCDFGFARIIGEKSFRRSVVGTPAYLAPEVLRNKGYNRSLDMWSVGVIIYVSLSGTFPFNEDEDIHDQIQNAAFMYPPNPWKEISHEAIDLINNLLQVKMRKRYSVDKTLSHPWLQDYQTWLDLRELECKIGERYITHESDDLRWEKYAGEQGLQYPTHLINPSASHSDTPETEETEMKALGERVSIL
T12 sequence (Q8IWQ3 whole entry): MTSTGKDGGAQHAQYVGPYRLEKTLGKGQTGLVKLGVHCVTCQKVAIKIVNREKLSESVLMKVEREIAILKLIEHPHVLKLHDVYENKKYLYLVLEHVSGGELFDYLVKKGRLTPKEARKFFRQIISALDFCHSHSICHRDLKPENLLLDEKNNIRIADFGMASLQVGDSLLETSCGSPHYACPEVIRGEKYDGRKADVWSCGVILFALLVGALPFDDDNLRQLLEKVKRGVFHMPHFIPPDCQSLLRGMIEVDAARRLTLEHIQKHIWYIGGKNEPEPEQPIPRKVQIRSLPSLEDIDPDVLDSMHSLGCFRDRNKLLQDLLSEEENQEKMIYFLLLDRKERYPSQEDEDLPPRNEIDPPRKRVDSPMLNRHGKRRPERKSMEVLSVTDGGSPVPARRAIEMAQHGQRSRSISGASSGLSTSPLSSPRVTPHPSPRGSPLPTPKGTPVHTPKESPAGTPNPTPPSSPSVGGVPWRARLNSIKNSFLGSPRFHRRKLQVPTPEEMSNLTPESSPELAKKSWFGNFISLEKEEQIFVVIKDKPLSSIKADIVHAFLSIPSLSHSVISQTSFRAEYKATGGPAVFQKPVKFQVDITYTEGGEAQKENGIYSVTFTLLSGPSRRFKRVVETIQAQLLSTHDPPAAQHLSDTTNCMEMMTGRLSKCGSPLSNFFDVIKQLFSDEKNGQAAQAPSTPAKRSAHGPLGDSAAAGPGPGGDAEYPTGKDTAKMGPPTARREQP
T15 sequence (Q9H2X6 whole entry): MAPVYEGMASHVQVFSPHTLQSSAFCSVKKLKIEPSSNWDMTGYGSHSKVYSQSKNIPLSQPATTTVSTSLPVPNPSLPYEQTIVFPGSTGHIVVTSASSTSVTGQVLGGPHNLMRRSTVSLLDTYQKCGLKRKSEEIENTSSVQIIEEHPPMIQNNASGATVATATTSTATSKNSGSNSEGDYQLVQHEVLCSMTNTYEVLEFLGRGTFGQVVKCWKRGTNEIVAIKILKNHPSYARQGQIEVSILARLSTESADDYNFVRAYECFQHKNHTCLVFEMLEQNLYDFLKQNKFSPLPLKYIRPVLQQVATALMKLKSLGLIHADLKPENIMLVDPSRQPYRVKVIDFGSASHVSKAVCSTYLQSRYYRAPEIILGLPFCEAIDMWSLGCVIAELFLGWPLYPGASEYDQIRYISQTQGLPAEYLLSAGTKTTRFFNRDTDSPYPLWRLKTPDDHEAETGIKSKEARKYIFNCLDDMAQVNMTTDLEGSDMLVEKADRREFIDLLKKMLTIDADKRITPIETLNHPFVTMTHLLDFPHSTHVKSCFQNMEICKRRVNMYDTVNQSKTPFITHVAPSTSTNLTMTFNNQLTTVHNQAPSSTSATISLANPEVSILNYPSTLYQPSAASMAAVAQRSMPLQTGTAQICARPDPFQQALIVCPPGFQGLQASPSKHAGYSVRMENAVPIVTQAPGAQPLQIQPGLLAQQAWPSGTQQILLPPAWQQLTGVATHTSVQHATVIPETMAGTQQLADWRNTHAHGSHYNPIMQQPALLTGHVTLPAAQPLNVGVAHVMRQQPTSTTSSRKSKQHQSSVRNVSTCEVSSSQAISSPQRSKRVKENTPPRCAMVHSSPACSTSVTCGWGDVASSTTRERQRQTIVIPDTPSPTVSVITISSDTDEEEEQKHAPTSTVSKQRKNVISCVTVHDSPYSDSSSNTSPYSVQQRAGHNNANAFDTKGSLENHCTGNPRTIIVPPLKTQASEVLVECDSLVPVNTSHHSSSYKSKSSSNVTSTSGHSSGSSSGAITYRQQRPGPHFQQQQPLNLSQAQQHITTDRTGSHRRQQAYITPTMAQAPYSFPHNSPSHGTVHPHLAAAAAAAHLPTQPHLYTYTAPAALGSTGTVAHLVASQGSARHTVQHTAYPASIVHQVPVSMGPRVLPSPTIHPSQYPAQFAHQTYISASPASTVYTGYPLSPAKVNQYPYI
T13 sequence (Q8IY84 whole entry): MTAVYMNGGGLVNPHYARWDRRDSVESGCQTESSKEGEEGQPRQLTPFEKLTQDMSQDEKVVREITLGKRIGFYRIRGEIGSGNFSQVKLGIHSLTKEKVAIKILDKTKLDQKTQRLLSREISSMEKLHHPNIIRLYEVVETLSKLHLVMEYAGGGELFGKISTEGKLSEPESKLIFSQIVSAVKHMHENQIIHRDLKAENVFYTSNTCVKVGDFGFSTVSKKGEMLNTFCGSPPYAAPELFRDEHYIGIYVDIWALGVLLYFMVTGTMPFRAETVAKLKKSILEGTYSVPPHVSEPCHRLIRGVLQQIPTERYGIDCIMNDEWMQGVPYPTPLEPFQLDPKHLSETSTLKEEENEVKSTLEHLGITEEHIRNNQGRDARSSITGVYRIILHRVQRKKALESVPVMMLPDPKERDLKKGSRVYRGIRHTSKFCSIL
T20 sequence (Q9Y2H1 whole entry): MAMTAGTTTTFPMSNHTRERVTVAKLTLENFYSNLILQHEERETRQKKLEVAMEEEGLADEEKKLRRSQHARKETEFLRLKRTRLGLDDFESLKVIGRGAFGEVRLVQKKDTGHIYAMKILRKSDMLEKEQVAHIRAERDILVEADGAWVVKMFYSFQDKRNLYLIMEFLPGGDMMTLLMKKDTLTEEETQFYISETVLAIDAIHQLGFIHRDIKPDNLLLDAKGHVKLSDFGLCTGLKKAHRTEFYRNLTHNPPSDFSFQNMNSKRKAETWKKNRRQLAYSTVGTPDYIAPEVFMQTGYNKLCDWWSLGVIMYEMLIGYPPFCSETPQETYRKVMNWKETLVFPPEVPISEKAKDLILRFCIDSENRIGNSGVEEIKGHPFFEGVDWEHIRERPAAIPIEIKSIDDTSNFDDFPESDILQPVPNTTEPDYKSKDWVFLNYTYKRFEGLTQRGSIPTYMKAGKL

For the compound `CCN1CCN(C(=O)c2ccc(Nc3ncc(F)c(-c4ccc5nc(N(C)C)sc5c4)n3)nc2)CC1` [YK-2-69], the remaining activity at 1 µM in [1] came to 102%; in test [2] it was 79.3%; in [3] it was 103%; in test [4], 102%; in test [5] it was 98%; in test [6], 91.2%. The remaining activity at 1 µM in test [7] was determined as 80.6%; in test [8], 78.5%; in [9] it was 61.3%; in test [10], 89.6%; in test [11], 72.1%; in [12], 96.3%. Moreover, the remaining activity at 1 µM stood at 96.9% in test [13]; 94.5% in test [14]; 28.1% in test [15]; 89.2% in [16]; 101% in [17]; 70.5% in [18]. The remaining activity at 1 µM is 98.8% in test [19] and 95.4% in test [20]. Also, in [21], the “% Enzyme Activity (relative to DMSO controls)” value is 114.34% and 110.21%.
